Results: patent US6781000B1, “Alpha-ketoamide inhibitors of 20S proteasome” (CV Theurapeutics, Inc., priority 1998, dated 2004)

These compounds were tested against T1, chymotrypsin-like activity of 20S proteasome (Bos taurus, UniProt Q2TBX6+Q32KL2) (assay: 20S proteasome chymotryptic activity inhibition assay (Suc-Leu-Leu-Val-Tyr-AMC cleavage)). Details: 2 μg 20S proteasome from bovine brain, 50 μM fluorogenic substrate, 15 minutes at 37° C., pH7.5.
T1 construct: was purified to homogeneity from bovine brain according to published methods; from tissue; host or cells: bovine brain
Assay type: biochemical
Description: Compounds of this invention prepared according to the method of Example 1 were tested as follows. The 20S catalytic subunit of the proteasome (also known as the multicatalytic proteinase complex) was purified to homogeneity from bovine brain according to published methods (Wilk S. and Orlowski,M 1983, 40 842 J.Neurochem). The chymotryptic activity of the complex is measured by the increase in fluorescence following cleavage of the substrate peptide succinyl-leucine-leucine-valine-tyrosine-7-amino-4methyl coumarin. The standard in vitro assay consists of 2 μg 20S proteasome, 0.1-100 μg/ml proteasome inhibitor in 200 μl 50 mM HEPES, containing 0.1% sodium dodecyl sulphate, pH7.5. The proteolytic reaction is initiated by the addition of 50 μM flourogenic peptide substrate and allowed to progress for 15 minutes at 37° C. The reaction is terminated by the addition of 100 μL of 100 mM acetate buffer, pH4.0. The rate of proteolysis is directly proportional to the amount of liberated aminomethylcoumarin which is measured by fluorescent spectroscopy (EX 370 nm, EM 430 nm).

Row | Compound | IC50 | IC50 for the inhibition of the chymotrypsin-like activity of 20S proteasome
1 | CC(C)CC(NC(=O)CCNC(=O)C(=O)Cc1c[nH]c2ccccc12)C(=O)NCC(=O)O (stereo not drawn) [Compound 53] | > 22.5 µM | –
2 | CCCCC(NC(=O)C(=O)Cc1c[nH]c2ccccc12)C(=O)NC(CC(C)C)C(=O)NCC(=O)O (stereo not drawn) [Compound 54] | – | >10 µg/mL
3 | CC(C)CC(NC(=O)C(Cc1ccccc1)NC(=O)C(=O)Cc1c[nH]c2ccccc12)C(=O)NCC(=O)O (stereo not drawn) [Compound 55] | – | >10 µg/mL
4 | CC(C)CC(NC(=O)C(NC(=O)C(=O)Cc1c[nH]c2ccccc12)C(C)O)C(=O)NCC(=O)O (stereo not drawn) [Compound 56] | – | >10 µg/mL
5 | CC(C)CC(NC(=O)C(C)NC(=O)C(=O)Cc1c[nH]c2ccccc12)C(=O)NCC(=O)O (stereo not drawn) [Compound 57] | – | >10 µg/mL
6 | CC(C)C[C@@H](NC(=O)[C@H](CC(=O)O)NC(=O)C(=O)Cc1c[nH]c2ccccc12)C(=O)NCC(=O)O [Compound 58] | > 20.5 µM | –
7 | CC(C)C[C@@H](NC(=O)[C@@H](NC(=O)C(=O)Cc1c[nH]c2ccccc12)C(C)C)C(=O)NCC(=O)O [Compound 59] | > 21.2 µM | –
8 | CCCC(NC(=O)C(=O)Cc1c[nH]c2ccccc12)C(=O)NC(CC(C)C)C(=O)NCC(=O)O (stereo not drawn) [Compound 60] | – | >10 µg/mL
9 | CC(C)CC(NC(=O)C(Cc1ccc(O)cc1)NC(=O)C(=O)Cc1c[nH]c2ccccc12)C(=O)NCC(=O)O (stereo not drawn) [Compound 61] | – | >10 µg/mL
10 | CCC(C)C(NC(=O)C(=O)Cc1c[nH]c2ccccc12)C(=O)NC(CC(C)C)C(=O)NCC(=O)O (stereo not drawn) [Compound 62] | – | >10 µg/mL
11 | CC(C)CC(NC(=O)C(CC1CCCCC1)NC(=O)C(=O)Cc1c[nH]c2ccccc12)C(=O)NCC(=O)O (stereo not drawn) [Compound 63] | – | >10 µg/mL
12 | CC(C)CC(NC(=O)C(Cc1cccnc1)NC(=O)C(=O)Cc1c[nH]c2ccccc12)C(=O)NCC(=O)O (stereo not drawn) [Compound 64] | – | >10 µg/mL
13 | CC(C)CC(NC(=O)C(Cc1ccc2ccccc2c1)NC(=O)C(=O)Cc1c[nH]c2ccccc12)C(=O)NCC(=O)O (stereo not drawn) [Compound 65] | – | >10 µg/mL
14 | CC(C)CC(NC(=O)C(Cc1ccc(-c2ccccc2)cc1)NC(=O)C(=O)Cc1c[nH]c2ccccc12)C(=O)NCC(=O)O (stereo not drawn) [Compound 66] | – | >10 µg/mL
15 | CC(C)CC(NC(=O)CNC(=O)C(=O)Cc1c[nH]c2ccccc12)C(=O)NC(C)C(=O)O (stereo not drawn) [Compound 67] | – | >10 µg/mL
16 | CC(C)CC(NC(=O)CCNC(=O)C(=O)Cc1c[nH]c2ccccc12)C(=O)NC(C)C(=O)O (stereo not drawn) [Compound 68] | – | >10 µg/mL
17 | CCCCC(NC(=O)C(=O)Cc1c[nH]c2ccccc12)C(=O)NC(CC(C)C)C(=O)NC(C)C(=O)O (stereo not drawn) [Compound 69] | – | >10 µg/mL
18 | CC(C)CC(NC(=O)C(Cc1ccccc1)NC(=O)C(=O)Cc1c[nH]c2ccccc12)C(=O)NC(C)C(=O)O (stereo not drawn) [Compound 70] | – | >10 µg/mL
19 | CC(C)CC(NC(=O)C(NC(=O)C(=O)Cc1c[nH]c2ccccc12)C(C)O)C(=O)NC(C)C(=O)O (stereo not drawn) [Compound 71] | – | >10 µg/mL
20 | CC(C)CC(NC(=O)C(C)NC(=O)OCc1c[nH]c2ccccc12)C(=O)NC(C)C(=O)O (stereo not drawn) [Compound 72] | – | >10 µg/mL
21 | CC(C)CC(NC(=O)C(CC(=O)O)NC(=O)OCc1c[nH]c2ccccc12)C(=O)NC(C)C(=O)O (stereo not drawn) [Compound 73] | – | >10 µg/mL
22 | CC(C)CC(NC(=O)C(NC(=O)C(=O)Cc1c[nH]c2ccccc12)C(C)C)C(=O)NC(C)C(=O)O (stereo not drawn) [Compound 74] | – | >10 µg/mL
23 | CCCC(NC(=O)C(=O)Cc1c[nH]c2ccccc12)C(=O)NC(CC(C)C)C(=O)NC(C)C(=O)O (stereo not drawn) [Compound 75] | > 20.6 µM | –
24 | CC(C)CC(NC(=O)C(Cc1ccc(O)cc1)NC(=O)C(=O)Cc1c[nH]c2ccccc12)C(=O)NC(C)C(=O)O (stereo not drawn) [Compound 76] | – | >10 µg/mL

Row | Compound | IC50 | IC50 for the inhibition of the chymotrypsin-like activity of 20S proteasome
25 | CCC(C)C(NC(=O)C(=O)Cc1c[nH]c2ccccc12)C(=O)NC(CC(C)C)C(=O)NC(C)C(=O)O (stereo not drawn) [Compound 77] | > 20 µM | –
26 | CC(C)CC(NC(=O)C(CC1CCCCC1)NC(=O)C(=O)Cc1c[nH]c2ccccc12)C(=O)NC(C)C(=O)O (stereo not drawn) [Compound 78] | – | >10 µg/mL
27 | CC(C)CC(NC(=O)C(Cc1cccnc1)NC(=O)C(=O)Cc1c[nH]c2ccccc12)C(=O)NC(C)C(=O)O (stereo not drawn) [Compound 79] | – | >10 µg/mL
28 | CC(C)CC(NC(=O)C(Cc1ccc2ccccc2c1)NC(=O)C(=O)Cc1c[nH]c2ccccc12)C(=O)NC(C)C(=O)O (stereo not drawn) [Compound 80] | – | >10 µg/mL
29 | CC(C)CC(NC(=O)C(Cc1ccc(-c2ccccc2)cc1)NC(=O)C(=O)Cc1c[nH]c2ccccc12)C(=O)NC(C)C(=O)O (stereo not drawn) [Compound 81] | > 16.4 µM | –
30 | CC(C)CC(NC(=O)CNC(=O)C(=O)Cc1c[nH]c2ccccc12)C(=O)NC(Cc1ccc(O)cc1)C(=O)O (stereo not drawn) [Compound 82] | > 18.6 µM | –
31 | CC(C)CC(NC(=O)C(NC(=O)C(=O)Cc1c[nH]c2ccccc12)C(C)O)C(=O)NC(Cc1ccc(O)cc1)C(=O)O (stereo not drawn) [Compound 83] | – | >10 µg/mL
32 | CC(C)CC(NC(=O)CCNC(=O)C(=O)Cc1c[nH]c2ccccc12)C(=O)NC(Cc1ccc(O)cc1)C(=O)O (stereo not drawn) [Compound 84] | – | >10 µg/mL
33 | CC(C)CC(NC(=O)C(=O)Cc1c[nH]c2ccccc12)C(=O)NC(CC(C)C)C(=O)NCC(=O)O (stereo not drawn) [Compound 85] | – | >10 µg/mL
34 | CC(C)CC(NC(=O)C(=O)Cc1c[nH]c2ccccc12)C(=O)NC(CC(C)C)C(=O)NC(Cc1ccc(O)cc1)C(=O)O (stereo not drawn) [Compound 88] | > 16.9 µM | –
35 | CC(C)CC(NC(=O)CNC(=O)C(=O)Cc1c[nH]c2ccccc12)C(=O)NC(CO)C(=O)O (stereo not drawn) [Compound 89] | – | >10 µg/mL
36 | CC(C)CC(NC(=O)CCNC(=O)C(=O)Cc1c[nH]c2ccccc12)C(=O)NC(CO)C(=O)O (stereo not drawn) [Compound 90] | – | >10 µg/mL
37 | CCCC[C@H](NC(=O)C(=O)Cc1c[nH]c2ccccc12)C(=O)N[C@H](CC(C)C)C(=O)N[C@@H](CO)C(=O)O [Compound 91] | > 19.4 µM | –
38 | CC(C)CC(NC(=O)C(Cc1ccccc1)NC(=O)C(=O)Cc1c[nH]c2ccccc12)C(=O)NC(CO)C(=O)O (stereo not drawn) [Compound 92] | – | >10 µg/mL
39 | CC(C)CC(NC(=O)C(NC(=O)C(=O)Cc1c[nH]c2ccccc12)C(C)O)C(=O)NC(CO)C(=O)O (stereo not drawn) [Compound 93] | – | >10 µg/mL
40 | CC(C)CC(NC(=O)C(C)NC(=O)C(=O)Cc1c[nH]c2ccccc12)C(=O)NC(CO)C(=O)O (stereo not drawn) [Compound 94] | – | >10 µg/mL
41 | CC(C)CC(NC(=O)C(CC(=O)O)NC(=O)C(=O)Cc1c[nH]c2ccccc12)C(=O)NC(CO)C(=O)O (stereo not drawn) [Compound 95] | – | >10 µg/mL
42 | CC(C)CC(NC(=O)C(NC(=O)C(=O)Cc1c[nH]c2ccccc12)C(C)C)C(=O)NC(CO)C(=O)O (stereo not drawn) [Compound 96] | – | >10 µg/mL
43 | CCCC(NC(=O)C(=O)Cc1c[nH]c2ccccc12)C(=O)NC(CC(C)C)C(=O)NC(CO)C(=O)O (stereo not drawn) [Compound 97] | – | >10 µg/mL
44 | CC(C)CC(NC(=O)C(Cc1ccc(O)cc1)NC(=O)C(=O)Cc1c[nH]c2ccccc12)C(=O)NC(CO)C(=O)O (stereo not drawn) [Compound 98] | – | >10 µg/mL
45 | CCC(C)C(NC(=O)C(=O)Cc1c[nH]c2ccccc12)C(=O)NC(CC(C)C)C(=O)NC(CO)C(=O)O (stereo not drawn) [Compound 99] | – | >10 µg/mL
46 | CC(C)CC(NC(=O)C(CC1CCCCC1)NC(=O)C(=O)Cc1c[nH]c2ccccc12)C(=O)NC(CO)C(=O)O (stereo not drawn) [Compound 100] | – | >10 µg/mL
47 | CC(C)CC(NC(=O)C(Cc1cccnc1)NC(=O)C(=O)Cc1c[nH]c2ccccc12)C(=O)NC(CO)C(=O)O (stereo not drawn) [Compound 101] | – | >10 µg/mL
48 | CC(C)CC(NC(=O)C(Cc1ccc(-c2ccccc2)cc1)NC(=O)C(=O)Cc1c[nH]c2ccccc12)C(=O)NC(CO)C(=O)O (stereo not drawn) [Compound 103] | – | >10 µg/mL
